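Results reflect a 48-hour exposure of cells in 96-well plates to compound at five concentrations. At the GI50, growth is halved. Definition used: TGI = concentration required for complete inhibition of growth.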
What was measured:
Assay in all cases: NCI tumour cell line growth inhibition, 48 h
[1] = tested on: COLO 205 colon
[2] = tested on: HCT-15 colon
[3] = tested on: TK-10 renal
[4] = tested on: SF-268 CNS
[5] = tested on: HOP-92 NSCLC
[6] = tested on: SNB-75 CNS
[7] = tested on: CCRF-CEM leukemia
[8] = tested on: RXF 393 renal
[9] = tested on: UACC-62 melanoma
[10] = tested on: HOP-62 NSCLC
[11] = tested on: HCT-116 colon
[12] = tested on: BT-549 breast
[13] = tested on: NCI/ADR-RES ovarian
[14] = tested on: SK-MEL-2 melanoma
[15] = tested on: OVCAR-3 ovarian
[16] = tested on: HS 578T breast
[17] = tested on: MDA-MB-435
[18] = tested on: MDA-MB-231 breast
[19] = tested on: U251 CNS
[20] = tested on: KM12 colon
[21] = tested on: MALME-3M melanoma
[22] = tested on: RPMI-8226 leukemia
[23] = tested on: SR leukemia
[24] = tested on: EKVX NSCLC
[25] = tested on: M14 melanoma
[26] = tested on: HL-60(TB) leukemia
[27] = tested on: SK-OV-3 ovarian
[28] = tested on: MOLT-4 leukemia
[29] = tested on: ACHN renal
[30] = tested on: CAKI-1 renal
[31] = tested on: PC-3 prostate
[32] = tested on: SF-539 CNS
[33] = tested on: MCF7 breast
[34] = tested on: OVCAR-4 ovarian
[35] = tested on: OVCAR-8 ovarian
[36] = tested on: A498 renal
[37] = tested on: A549 NSCLC
[38] = tested on: 786-0 renal
[39] = tested on: SK-MEL-5 melanoma
[40] = tested on: DU-145 prostate
[41] = tested on: OVCAR-5 ovarian
[42] = tested on: K-562 leukemia
[43] = tested on: SF-295 CNS
[44] = tested on: UACC-257 melanoma
[45] = tested on: SNB-19 CNS
[46] = tested on: LOX IMVI melanoma
[47] = tested on: T-47D breast
[48] = tested on: NCI-H460 lung
[49] = tested on: SK-MEL-28 melanoma
[50] = tested on: NCI-H226 lung
[51] = tested on: NCI-H23 lung
[52] = tested on: SN12C renal
[53] = tested on: UO-31 renal
[54] = tested on: HCC-2998 colon
[55] = tested on: IGROV1 ovarian
[56] = tested on: SW-620 colon
[57] = tested on: HT29 colon
[58] = tested on: NCI-H522 lung

## O=C(Nc1ccc(N2CCNCC2)cc1)c1[nH]ncc1Nc1ncnc2sc3c(c12)CCC3
[1]
  GI50: 0.124 µM
  TGI: 1.31 µM
[2]
  GI50: 0.224 µM
  TGI: 1.29 µM
[3]
  GI50: 0.41 µM
  TGI: 2.05 µM
[4]
  GI50: 0.89 µM
  TGI: 2.76 µM
[5]
  GI50: 0.0302 µM
  TGI: 1.91 µM
[6]
  GI50: 0.0657 µM
  TGI: 1.59 µM
[7]
  GI50: 0.222 µM
  TGI: 1.13 µM
[8]
  GI50: 0.394 µM
  TGI: 1.89 µM
[9]
  GI50: 1.07 µM
  TGI: 2.31 µM
[10]
  GI50: 0.621 µM
  TGI: 2.79 µM
[11]
  GI50: 0.109 µM
  TGI: 0.297 µM
[12]
  GI50: 1.13 µM
  TGI: 2.4 µM
[13]
  GI50: 1.48 µM
  TGI: 3.7 µM
[14]
  GI50: 1.27 µM
  TGI: 3.01 µM
[15]
  GI50: 0.256 µM
  TGI: 1.67 µM
[16]
  GI50: 0.0994 µM
  TGI: 2.08 µM
[17]
  GI50: 0.199 µM
  TGI: 1.77 µM
[18]
  GI50: 0.333 µM
  TGI: 2.04 µM
[19]
  GI50: 0.108 µM
  TGI: 0.244 µM
[20]
  GI50: 0.219 µM
  TGI: 1.33 µM
[21]
  GI50: 0.121 µM
  TGI: 1.77 µM
[22]
  GI50: 0.67 µM
  TGI: 3.58 µM
[23]
  GI50: 0.0638 µM
[24]
  GI50: 0.194 µM
  TGI: 1.94 µM
[25]
  GI50: 0.146 µM
  TGI: 1.64 µM
[26]
  GI50: 1.2 µM
  TGI: 3.28 µM
[27]
  GI50: 0.257 µM
  TGI: 1.56 µM
[28]
  GI50: 0.0835 µM
  TGI: 1.07 µM
[29]
  GI50: 0.181 µM
  TGI: 1.16 µM
[30]
  GI50: 0.148 µM
  TGI: 1.6 µM
[31]
  GI50: 0.179 µM
  TGI: 1.49 µM
[32]
  GI50: 0.399 µM
  TGI: 1.81 µM
[33]
  GI50: 0.166 µM
  TGI: 1.3 µM
[34]
  GI50: 0.321 µM
  TGI: 2.26 µM
[35]
  GI50: 0.36 µM
  TGI: 1.84 µM
[36]
  GI50: 0.188 µM
  TGI: 1.58 µM
[37]
  GI50: 0.136 µM
  TGI: 0.696 µM
[38]
  GI50: 0.254 µM
  TGI: 1.52 µM
[39]
  GI50: 0.381 µM
  TGI: 1.79 µM
[40]
  GI50: 0.302 µM
  TGI: 1.19 µM
[41]
  GI50: 0.33 µM
  TGI: 1.92 µM
[42]
  GI50: 0.115 µM
  TGI: 0.472 µM
[43]
  GI50: 0.359 µM
  TGI: 1.95 µM
[44]
  GI50: 0.478 µM
  TGI: 2.43 µM
[45]
  GI50: 0.274 µM
  TGI: 1.69 µM
[46]
  GI50: 0.199 µM
  TGI: 1.8 µM
[47]
  GI50: 0.852 µM
  TGI: 3.53 µM
[48]
  GI50: 0.0845 µM
  TGI: 0.978 µM
[49]
  GI50: 1 µM
  TGI: 2.29 µM
[50]
  GI50: 0.548 µM
  TGI: 2.56 µM
[51]
  GI50: 0.268 µM
  TGI: 1.85 µM
[52]
  GI50: 0.412 µM
  TGI: 1.84 µM
[53]
  GI50: 0.431 µM
  TGI: 1.84 µM
[54]
  GI50: 0.62 µM
  TGI: 2.19 µM
[55]
  GI50: 0.125 µM
  TGI: 1.38 µM
[56]
  GI50: 0.157 µM
  TGI: 0.756 µM

## COc1ccc2c(c1)/C(=C\c1c(C)nc3sc(C)cn13)C(=O)N2C
[1]
  GI50: 3.42 µM
  TGI: 49.8 µM
[2]
  GI50: 2.73 µM
  TGI: 40.3 µM
[3]
  GI50: 4.35 µM
  TGI: 37.8 µM
[4]
  GI50: 4.62 µM
  TGI: 39 µM
[5]
  GI50: 7.42 µM
  TGI: 37 µM
[6]
  GI50: 5.88 µM
  TGI: 51.2 µM
[7]
  GI50: 5.46 µM
  TGI: > 100 µM
[8]
  GI50: 4.84 µM
  TGI: 48.3 µM
[9]
  GI50: 1.69 µM
  TGI: 10 µM
[10]
  GI50: 20.5 µM
  TGI: > 100 µM
[11]
  GI50: 6 µM
  TGI: > 100 µM
[12]
  GI50: 6.01 µM
  TGI: 49.7 µM
[13]
  GI50: 1.32 µM
  TGI: 4.04 µM
[14]
  GI50: 9.57 µM
  TGI: > 100 µM
[15]
  GI50: 1.43 µM
  TGI: 3.99 µM
[16]
  GI50: 1.83 µM
  TGI: 5.4 µM
[17]
  GI50: 1.51 µM
  TGI: 5.72 µM
[57]
  GI50: 3.27 µM
  TGI: 19.2 µM
[18]
  GI50: 4.59 µM
  TGI: 65 µM
[19]
  GI50: 3.69 µM
  TGI: 31.2 µM
[20]
  GI50: 4.87 µM
  TGI: 43.4 µM
[21]
  GI50: 7.09 µM
  TGI: 73.3 µM
[22]
  GI50: 4.75 µM
  TGI: > 100 µM
[23]
  GI50: 0.345 µM
  TGI: > 100 µM
[24]
  GI50: 16.7 µM
  TGI: 73.8 µM
[25]
  GI50: 4.99 µM
  TGI: 61.1 µM
[27]
  GI50: 2.35 µM
  TGI: 7.18 µM
[28]
  GI50: 3.76 µM
  TGI: > 100 µM
[29]
  GI50: 4.82 µM
  TGI: 62.7 µM
[30]
  GI50: 1.33 µM
  TGI: 4.33 µM
[31]
  GI50: 6.9 µM
  TGI: 62.4 µM
[32]
  GI50: 1.91 µM
  TGI: 6.63 µM
[33]
  GI50: 3.29 µM
  TGI: 35.4 µM
[34]
  GI50: 26.4 µM
  TGI: > 100 µM
[35]
  GI50: 6.14 µM
  TGI: > 100 µM
[37]
  GI50: 30.7 µM
  TGI: > 100 µM
[58]
  GI50: 2.54 µM
  TGI: 8.44 µM
[38]
  GI50: 8.92 µM
  TGI: > 100 µM
[39]
  GI50: 2.15 µM
  TGI: 5.49 µM
[40]
  GI50: 11 µM
  TGI: > 100 µM
[41]
  GI50: 19.9 µM
  TGI: > 100 µM
[42]
  GI50: 1.83 µM
  TGI: > 100 µM
[43]
  GI50: 2.25 µM
  TGI: 6.88 µM
[44]
  GI50: 21.8 µM
  TGI: > 100 µM
[45]
  GI50: 4.08 µM
  TGI: > 100 µM
[46]
  GI50: 4.4 µM
  TGI: 26.2 µM
[47]
  GI50: 1.78 µM
  TGI: 5.35 µM
[48]
  GI50: 3.54 µM
  TGI: 36.6 µM
[49]
  GI50: 7.26 µM
  TGI: 35.5 µM
[50]
  GI50: 2.74 µM
  TGI: 15.9 µM
[51]
  GI50: 8.04 µM
  TGI: 35.3 µM
[52]
  GI50: 4.7 µM
  TGI: 32.3 µM
[53]
  GI50: 10 µM
  TGI: > 100 µM
[54]
  GI50: 1.37 µM
  TGI: 4.68 µM
[55]
  GI50: 9.74 µM
  TGI: > 100 µM
[56]
  GI50: 3.25 µM
  TGI: 18 µM

Reference: PubChem BioAssay (NCI)
